pEC50: −log10 of the molar value.
What was measured:
Type in all cases: cell-based
[1] = test system: PMN's (polymorphonuclear leukocytes); experiment: Neutrophil oxidative burst assay; conditions: Leukocyte, 40 min, read-out: Neutrophil oxidative burst Rel EC50 range
Protocol: PMN's (polymorphonuclear leukocytes) were isolated and purified from fresh buffy coats by sequential sedimentation, density centrifugation and lysis of contaminating erythrocytes. Buffy coats were incubated with 2% methocel for 30-45 min to differentially sediment red blood cells. The leukocyte-rich supernatant was transferred to lymphoprep tubes to remove mononuclear cells by density centrifugation (400×g, 30 min). The pellet was resuspended and any remaining erythrocytes lysed using 0.2% NaCl for 30 sec before restoring isotonicity by the addition of 1.2% NaCl. This step was repeated until the cell pellet appears relatively free of red blood cells. Cells were resuspended in DPBS (Dulbecco's Phosphate Buffered Saline) (w.o. Ca^2+, Mg^2+) and the concentration adjusted to 1.4×10^6 cells/ml in HBSS (Hanks Balanced Salt solution) (w Ca^2+, Mg^2+) containing 0.1% BSA (Bovine Serum Albumin) and 5 mM glucose just prior to assay initiation. Titrated reference and test compounds were pre-mixed with HE (Hydroethidine) (10 μM final assay concentration) before addition to 96-well plates containing 2.5×10^5 cells. Following 40 min incubation at RT, changes in the respiratory burst was estimated by measuring fluorescence at 579 nm (excitation: 485 nm) using an Envision plate reader.
Test compound titration curves were fitted to a four-parameter sigmoidal curve after normalizing the effect of the test compound to the effect of the positive control (5×10^−7 M PEP0005). Rel EC50 denotes the concentration of test compound producing an effect that is midway between the fitted top and bottom. Abs EC50 is the concentration of test compound that provokes a response corresponding to 50% of the maximal effect associated with the positive control (5×10^−7 M PEP0005).

[2] = test system: Primary human epidermal keratinocytes, HeKa; experiment: HeKa cytokine release (IL-8) assay; conditions: 6 h, read-out: HeKa cytokine release (IL-8) Rel EC50 range
Protocol: Primary human epidermal keratinocytes, HeKa, were seeded (10.000 cells/well) in 96-well plates the day before the assay. Test compounds were diluted in DMSO (dimethyl sulfoxide) and further diluted in assay medium and pipetted into wells of 96 well-plates containing HeKa cells. The plates were incubated for 6 h at 37° C. in humidified air with 5% CO2. Plates are centrifuged briefly to spin down cells at 4° C., the supernatant was removed and analysed by Meso Scale Discovery (MSD) 4-spot cytokine assay (Pro-inflammatory II Ultra Sensitive kit, MSD, MD, USA). The MSD assay employs a sandwich immunoassay format where capture antibodies were coated in a patterned array on the bottom of the wells of a 4-Spot-Multi-MSD plate. Standard samples were incubated in the MULTI-SPOT plates as well, and the cytokine (IL-8) binds to its corresponding capture antibody spot. The cytokine level was quantitated on a SECTOR™ Imager using a cytokine-specific Detection Antibody labelled with MSD SULFO-TAG™ reagent.
Test compound titration curves were fitted to a four-parameter sigmoidal curve after normalizing the effect of the test compound to the effect of the positive control (1.5×10^−7 M PEP0005). Rel EC50 denotes the concentration of test compound producing an effect that is midway between the fitted top and bottom.

[3] = test system: HeLa cells (ATCC CCL-002); experiment: Necrosis assay; conditions: Homo sapiens, 0.5 h, read-out: HeLa necrosis EC50 range
Protocol: HeLa cells (ATCC CCL-002) were grown in minimal essential medium (Invitrogen catalog no. 42360) containing 10% fetal bovine serum, 100 IU/ml penicillin and 100 μg/ml streptomycin. 4,000-6,000 cells were seeded into 96-well black ViewPlates-plates, clear bottom, (Perkin Elmer) in 100 μl medium and incubated overnight. Compounds were dissolved and pre-diluted in DMSO in 96-well polypropylene plates (Greiner) in a concentration range of 15 μM to 600 μM. At the time of the experiment cell plates were placed on heating blocks at 37° C., medium was removed and 40 μl fresh, pre-warmed medium was added per well. Cells were incubated for 15 min before addition of compounds. In parallel, 3 μl of compounds were diluted with 197 μl growth medium on a Tecan freedom-EVO pipetting station using 250 μl/s pipetting speed, in order to ensure effective mixing of the highly concentrated compound solutions with the aqueous phase. These pre-dilution plates were then equilibrated on heating blocks at 37° C. for 10 min. 80 μl pre-diluted compound were transferred manually to the corresponding wells containing HeLa cells yielding compound concentrations of 10 μM to 400 μM. Control conditions were 1% DMSO in growth medium (100% viability) and 400 μM ingenol mebutate in growth medium (0% viability). Plates were incubated on the heating blocks at 37° C. for 30 min. At the end of the incubation 10 μl PrestoBlue reagent (Invitrogen) were added to each well, plates were sealed with black seal, followed by incubation at 37° C. for 10 min with gentle shaking (150 rpm). Subsequently, plates were placed at room temperature for 20-30 min. Plates were read immediately after on an Envision Fluorescence reader (Perkin Elmer) with excitation at 535 nm and emission at 630 nm. Test compound titration curves were fitted to a four-parameter sigmoidal curve after normalizing the effect of the test compound to the effect of the positive control (4 10^−4 M PEP0005/ingenol mebutate). AbsEC50 denotes the concentration of test compound producing 50% effect.

Row | SMILES | pEC50 [1] | pEC50 [2] | pEC50 [3]
1 | CC1=C[C@]23C(=O)[C@@H](C=C(CO)[C@@H](O)[C@]2(O)[C@H]1OC(=O)c1c(N)cccc1F)[C@H]1[C@@H](C[C@H]3C)C1(C)C [Compound 341, Ingenol 3-(2-amino-6-fluoro-benzoate)] | > 7.70 | > 7.70 | > 3.82
2 | CC1=C[C@]23C(=O)[C@@H](C=C(CO)[C@@H](O)[C@]2(O)[C@H]1OC(=O)c1ccccc1NCc1ccccc1)[C@H]1[C@@H](C[C@H]3C)C1(C)C [Compound 331, Ingenol 3-(2-benzylamino-benzoate)] | > 7.70 | > 7.70 | > 3.82
3 | COc1cccc(NCc2ccccc2)c1C(=O)O[C@H]1C(C)=C[C@]23C(=O)[C@@H](C=C(CO)[C@@H](O)[C@]12O)[C@H]1[C@@H](C[C@H]3C)C1(C)C [Compound 333, Ingenol 3-(2-benzylamino-6-methoxy-benzoate)] | 7.00 to 7.70 | > 7.70 | > 3.82
4 | CC1=C[C@]23C(=O)[C@@H](C=C(CO)[C@@H](O)[C@]2(O)[C@H]1OC(=O)C1CCCCC1)[C@H]1[C@@H](C[C@H]3C)C1(C)C [Compound 302, Ingenol 3-(cyclohexanecarboxylate)] | > 7.70 | 7.00 to 7.70 | 3.46 to 3.82
5 | CC1=C[C@]23C(=O)[C@@H](C=C(CO)[C@@H](O)[C@]2(O)[C@H]1OC(=O)c1ccccc1Nc1ccccc1)[C@H]1[C@@H](C[C@H]3C)C1(C)C [Compound 336, Ingenol 3-(2-phenylamino-benzoate)] | > 7.70 | > 7.70 | > 3.82
6 | CC1=C[C@]23C(=O)[C@@H](C=C(CO)[C@@H](O)[C@]2(O)[C@H]1OC(=O)C12C[C@@H]4CC1C[C@@H](C4)C2)[C@H]1[C@@H](C[C@H]3C)C1(C)C [Compound 307, Ingenol 3-(noradamantane-3-carboxylate)] | > 7.70 | > 7.70 | 3.46 to 3.82

Source: patent US9656945B2, “3-acyl-ingenols II” (LEO LABORATORIES LIMITED, priority 2010, dated 2017)
